Results as given in publication PMC5826917, “A small molecule inhibitor of Nicotinamide N-methyltransferase for the treatment of metabolic disorders” (Scientific Reports, 2018).

Columns and labels:
mice on a high-fat diet = test system: mice on a high-fat diet; design: method as in PMID 29155147; details: treatment period of 12 days; cited from earlier work
db/db mice [1] = test: Chronic efficacy study in db/db mice; details: db/db mice
Method: Samples for MNA were analyzed employing a fit-for-purpose LC-MS/MS method. PE-Sciex API-4000 triple quadrupole (PerkinElmerSciex Instruments, Boston, MA) mass spectrometer was employed for this analysis. Samples (5 µL) were injected onto Kinetex HILIC (50 × 4.6 mm, 2.6 µm; Phenomenex, Torrance, CA, USA) column connected to Shimadzu VP (Shimadzu, Japan) LC system. The gradient mobile phase mixture of 0.2% formic acid and acetonitrile was delivered at a flow rate of 0.45 ml min-1 into the mass spectrometer electrospray ionization (ESI) chamber. Quantitation was achieved by MS/MS detection in positive ion mode for MNA and internal standard (d4–MNA). Detection of the ions was performed in the multiple reaction monitoring (MRM) mode, monitoring the transition of the m/z 137 precursor ion to the m/z 92 product ion for MNA and m/z 141 precursor ion to the m/z 84 product ion for d4-MNA (internal standard).
A simple protein precipitation extraction method was followed for extraction of N-methylnicotinamide from plasma and various tissue homogenate samples. The tissue samples were homogenized with 1:3 proportions of phosphate buffer saline (PBS) and this homogenate was used for N-Methylnicotinamide determinations. To an aliquot of ~50 μL of plasma/ liver homogenate/ adipose tissue homogenate samples ~300 µl of acetonitrile containing IS (d4-MNA) solution was added, followed by vortex for ~3 minutes and centrifuged for 10 minutes at 14,000 rpm. The supernatant was separated and transferred to pre-labeled HPLC vials and analyzed by LC-MS/MS system.
Samples for methylated JBSNF-000088 were analyzed employing a fit-for-purpose LC-MS/MS method. PE-Sciex API-5500 triple quadrupole (PerkinElmerSciex Instruments, Boston, MA) mass spectrometer was employed for this analysis. Samples (2 µL) were injected onto Atlantis dC18 (50 × 4.6 mm, 3 µm; Waters, Milford, MA, USA) column connected to Shimadzu VP (Shimadzu, Japan) LC system. The gradient mobile phase mixture of 0.2% formic acid and acetonitrile was delivered at a flow rate of 0.9 mL min-1 into the mass spectrometer electrospray ionization (ESI) chamber. Quantitation was achieved by MS/MS detection in positive ion mode for methylated JBSNF-000088 and internal standard (Tolbutamide). Detection of the ions was performed in the multiple reaction monitoring (MRM) mode, monitoring the transition of the m/z 168 precursor ion to the m/z 128.8, product ion for MNA and m/z 271 precursor ion to the m/z 91 product ion for tolbutamide (internal standard).
Male C57BL6/N (Vivo Bio Tech Ltd, India), ob/ob (B6.V-Lepob/OlaHsd) and its lean control (Envigo laboratories Inc, USA) and db/db (BKS.Cg- + Leprdb/ + Leprdb/OlaHsd) and its lean control (Envigo laboratories Inc, USA) were housed in individually ventilated cages (n = 5/cage) under standard laboratory conditions. The study room environment was maintained at a temperature of 21–24 °C and, relative humidity at 40–70%. The animal rooms were maintained under 12 h light and dark cycle. Animals were provided with ad libitum access to water and food (except where noted otherwise, e.g. during fasting prior for glucose tolerance tests, fasting prior to terminal sacrifice). Animals were acclimatized for 1 week before initiation of studies. For Diet induced obesity (DIO) mice study, C57BL6/N mice were maintained on rodents chow diet (Teklad; Harlan) or HFD (60% Kcal; Research diet) for 14 weeks before study initiation and throughout the study period. ob/ob and db/db mice and their lean controls were maintained on rodents chow diet (Teklad; Harlan). All the experiments were approved by Institutional Animal Ethics Committee (IAEC) of Jubilant Biosys Ltd, India.
Lean control + Vehicle and HFD + Vehicle Control groups (G1 and G2) mice were administered with vehicle.

NNMT = biological target: T1, NNMT (Homo sapiens, UniProt P40261); test: NNMT inhibition by the N-methylated product; format: biochemical
T1 sequence (P40261 1-264): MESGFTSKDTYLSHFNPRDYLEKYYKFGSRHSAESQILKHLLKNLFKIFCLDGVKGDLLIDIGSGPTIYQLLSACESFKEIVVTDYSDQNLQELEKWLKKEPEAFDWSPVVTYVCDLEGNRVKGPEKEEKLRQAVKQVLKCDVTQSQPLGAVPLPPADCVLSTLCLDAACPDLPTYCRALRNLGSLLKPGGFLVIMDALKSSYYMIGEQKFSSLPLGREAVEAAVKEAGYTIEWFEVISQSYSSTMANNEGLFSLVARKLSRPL

db/db mice [2] = test system: db/db mice; design: method as in PMID 12217892, PMID 25256010; details: two weeks of treatment at 100 µg/kg bid; cited from earlier work

For `C[n+]1cccc2c(N)cccc21` [5-Amino-1-methylquinoline], which body weight (mice on a high-fat diet) is on record?
The body weight was “causes weight loss at preserved food intake”.

With `COc1ccc(C(N)=O)c[n+]1C` [N-methylated product of JBSNF-000088, -carbamoyl-2-methoxy-1-methylpyridin-1-ium trifluoromethanesulfonate] as the compound, how does the “detection of methylated compound after oral administration of JBSNF-000088” value (db/db mice [1]) read?
The value was “could be detected in plasma and adipose tissue”.

And the IC50 (NNMT)?
Its IC50 is over 30 µM.

What about the inhibition at 30 µM (NNMT; at 30 µM) of the same compound?
The inhibition at 30 µM was 20%.

For liraglutide, which “effect on body weight” value (db/db mice [2]) is on record?
Its value is “no effect on body weight”.

What about the “influence on glucose homeostasis” value (db/db mice [2]) of the same compound?
Its value is “moderate influence on glucose homeostasis”.
